Reference: patent US20240058240A1, “COMPOUNDS AS SELF-TANNING SUBSTANCES AND TANNING COMPOSITIONS THEREOF” (CHEMCOM S.A., priority 2020, published 2024)

Molecular target: T1, OR7C1 (Homo sapiens, UniProt O76099)
T1 construct: transfected with a plasmid containing the CRE-luciferase and a plasmid containing the olfactory receptor; expressed in transfected cells; host or cells: HEK293T-RTP1A1/RTP2 (HEK293T stably expressing the chaperones RTP1A1 and RTP2)
T1 sequence (O76099 1-320): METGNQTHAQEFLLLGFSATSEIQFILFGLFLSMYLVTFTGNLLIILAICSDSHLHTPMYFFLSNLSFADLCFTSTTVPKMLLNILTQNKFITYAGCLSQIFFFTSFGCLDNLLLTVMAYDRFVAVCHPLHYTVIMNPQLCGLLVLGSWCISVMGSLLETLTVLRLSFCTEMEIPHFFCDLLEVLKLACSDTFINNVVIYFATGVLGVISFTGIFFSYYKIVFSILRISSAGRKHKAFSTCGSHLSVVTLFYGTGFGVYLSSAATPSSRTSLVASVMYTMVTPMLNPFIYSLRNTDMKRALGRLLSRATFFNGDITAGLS
Experiment: Luciferase-based CRE gene reporter assay, dose-response on OR7C1
Format: cell-based
Details: negative logarithm of the EC50 in Moles; semi-logarithmic dilutions from 1 mM to 316 nM on OR7C1
Protocol: HEK293T-RTP1A1/RTP2 cells were maintained in minimal essential medium (EMEM, Lonza) containing 10% fetal bovine serum (M10). These cells were generated by transfecting HEK293T (Thermofisher Scientific, cat ref: R70007) with an expression vector containing the sequences of the chaperone proteins RTP1A1 and RTP2 and a resistance gene to puromycin, using Lipofectamine 2000. The recombinant cell population, used in these experiments, was selected by adding 10 μg/ml of puromycin into the culture medium and subsequently subcloned (WO 2014/191047 A1).
Potential OR7C1 agonists were diluted at a concentration of 1 mole/liter (M) into an organic solvent such as Dimethyl Sulfoxide (DMSO) or Ethanol to generate stock solutions. […]
For concentration-response analysis, serial dilutions of the tested molecules were prepared from stock solutions in EMEM plated into 96-well plates.
For the dose-response analysis, a Luciferase-based gene reporter assay (Promega, Leiden, the Netherlands) was used. Briefly, cells were platted on poly-D-lysine-coated 96-well plates and transfected with a plasmid containing the CRE-luciferase and a plasmid containing the olfactory receptor. Sixteen hours after transfection, the culture medium was replaced by serum-free EMEM containing the tested compounds at a determined concentration. After four hours of incubation at 37° C., cells were lysed and processed for luminescence measurement. Luminescence emission was recorded. Results were expressed as luciferase activity ([…] (RLU)) or as percentage of the response induced by 10 μM of the adenylate cyclase activator Forskolin. An empty plasmid is used as negative control.
Dose-response analyses using the luciferase-based reporter assay were performed using semi-logarithmic serial dilutions of the compounds, from 1 mM to 316 nM, on OR7C1. 46 compounds were tested in concentration-response analyses. In each experiment, an empty vector (pEFIBRHO) was used as negative control. Values are given as the negative logarithm of the EC50 in Moles.

Compound	-LogEC50 (average n > 3)
2-(2,2,7,7-Tetramethyl-5-tricyclo[6.2.1.01,6]undec-4-enyl)butan-1-ol [Compound 28]	6.6
5-(1-Methoxybutan-2-yl)-2,2,7,7-tetramethyltricyclo[6.2.1.01,6]undec-5-ene [Compound 29]	5.2
Hydroxyambran [Compound 41]	5.5

Same assay, conditions: negative logarithm of the EC50 in Moles; semi-logarithmic dilutions from 1 mM to 316 nM on OR7C1; read-out: -LogEC50 (average n > 3) (converted)

EC50 [µM]	Compound
31.6	CC1(C)/C(=C\CO)C2CCC1C2 (racemic) [Compound 8, DL-Patchenol]
12.6	CCC1OC2CC(C)(C)[C@@]34CC[C@@H](C3)C(C)(C)C4C2O1 (stereo in doubt) [Compound 20, 6-Ethyl-2,2,10,10-tetramethyl-5,7-dioxatetracyclo[9.2.1.01,9.04,8]tetradecane]
10	CC1(C)C2C3OCOC3CC(C)(C)[C@]23CC[C@H]1C3 (stereo in doubt) [Compound 24, 2,2,10,10-Tetramethyl-5,7-dioxatetracyclo[9.2.1.01,9.04,8]tetradecane]
50.1	CC1(C)CCC[C@]2(C)C[C@]3(CCC12)CO3 (stereo in doubt) [Compound 38, 4,4,8a-Trimethylspiro[2,3,4a,5,6,8-hexahydro-1H-naphthalene-7,2′-oxirane]]
2.51	CC1OC[C@H](C)C2(CC3CCC2(C)C3(C)C)O1 (stereo partly drawn) [Compound 10, 1′,2,5(S),7′,7′-Pentamethyl-spiro[1,3-dioxane-4,2′-bicyclo[2.2.1]heptane]]
0.398	CC(C)[C@]12C[C@@H]3OC(C)(C)O[C@]3(C)[C@H](C1)C(C)(C)C2 [Compound 13, 2,4,4,10,10-Pentamethyl-8-propan-2-yl-3,5-dioxatricyclo[6.2.1.02,6]undecane]
31.6	CC1(C)CCC[C@]2(C)[C@H]3CCO[C@]3(C)CC[C@@H]12 [Compound 18, Ambroxan or (−)-Ambroxide]
63.1	CC(=O)OCC1CCC(C)(C)C23CC4C[C@H]2C13C4(C)C (some centres unmarked) [Compound 19, Amboryl acetate]
3.16	CCC(CO)C1=C2C(C)(C)[C@H]3CC[C@@]2(C3)C(C)(C)CC1 (some centres unmarked) [Compound 27, 5-(1-Hydroxybutan-2-yl)isolongifol-5-ene]
20	CC1(C)C2C(=O)CCC(C)(C)[C@]23CC[C@H]1C3 (stereo partly drawn) [Compound 32, (1S,8S)-2,2,7,7-Tetramethyltricyclo[6.2.1.01,6]undecan-5-one]
25.1	CC(=O)C1(C)CC2=C(CCCC2(C)C)CC1C (centres unmarked) [Compound 34, Sylvamber]
501	C[C@H]1[C@]2(CCC3C(C)(C)CCC[C@@]31C)CO2 (some centres unmarked) [Compound 37, 4,4,8,8a-Tetramethylspiro[2,3,4a,5,6,8-hexahydro-1H-naphthalene-7,2′-oxirane]]
20	C[C@]12CCC(=O)C[C@@H]1CC[C@@H]1[C@@H]2CC[C@]2(C)C=CC[C@@H]12 [Compound 45, 5α-Androst-16-en-3-one]
12.6	C[C@@]12C=CCC1C1CC=C3C[C@@H](O)CC[C@]3(C)C1CC2 (some centres unmarked) [Compound 46, Androstadienol]

Further lines, the compound ahead of its results:

Compound	EC50 [µM]
CCCC(O)COC1C(C)CCCC1(C)C (mixture of isomers) [Compound 14, 1-((2,2,6-trimethylcyclohexyl)oxy)pentan-2-ol]	126
CCC(O)COC1C(C)CCCC1(C)C (mixture of isomers) [Compound 15, 1-((2,2,6-trimethylcyclohexyl)oxy)butan-2-ol]	126
CC1OC2CC(C)(C)[C@@]34CC[C@@H](C3)C(C)(C)C4C2O1 (stereo in doubt) [Compound 23, 2,2,6,10,10-Pentamethyl-5,7-dioxatetracyclo[9.2.1.01,9.04,8]tetradecane]	5.01
COC[C@@H](C)C1=C2C(C)(C)[C@H]3CC[C@@]2(C3)C(C)(C)CC1 (stereo in doubt) [Compound 26, 5-(1-Methoxypropan-2-yl)-2,2,7,7-tetramethyltricyclo[6.2.1.01,6]undec-5-ene]	2.51
CCCC(O)CCC1C(C)CCCC1(C)C (centres unmarked) [Compound 1, Norlimbanol]	3.98
CCC(O)COC1CCCCC1C(C)(C)C (centres unmarked) [Compound 2, Ambercore]	12.6
CCC12CCC3C(C)(C)CCCC3(C)C1COC2 (centres unmarked) [Compound 3, Grisalva]	25.1
CCCC(O)COC1C2(C)CCC(C2)C1(C)C (centres unmarked) [Compound 5, 1-((1,3,3-trimethylbicyclo[2.2.1]heptan-2-yl)oxy)pentan-2-ol]	50.1
CCCC(=O)COC1C2(C)CCC(C2)C1(C)C (centres unmarked) [Compound 6, 1-((1,3,3-trimethylbicyclo[2.2.1]heptan-2-yl)oxy)pentan-2-one]	50.1
CCC(O)COC1C2(C)CCC(C2)C1(C)C (centres unmarked) [Compound 7, 1-((1,3,3-trimethylbicyclo[2.2.1]heptan-2-yl)oxy)butan-2-ol]	50.1
CC(C)[C@H]1OCC[C@]2(CC3CC[C@]2(C)C3(C)C)O1 [Compound 9, Belambre]	1.58
CC1OCC(C)C2(CC3CCC2(C)C3(C)C)O1 (centres unmarked) [Compound 11, 1′,2,5,7′,7′-Pentamethylspiro[1,3-dioxane-4,2′-bicyclo[2.2.1]heptane]]	2
CC1CCC2C(C2(C)C)C12COC(C)(C)OC2 (centres unmarked) [Compound 12, Spirambrene]	12.6
CC(C=O)C1=C2C(C)(C)[C@H]3CC[C@@]2(C3)C(C)(C)CC1 (some centres unmarked) [Compound 21, 5-(1-Oxopropan-2-yl)isolongifol-5-ene]	0.501
CC(O)C(C)C1=C2C(C)(C)[C@H]3CC[C@@]2(C3)C(C)(C)CC1 (some centres unmarked) [Compound 22, 5-(3-Hydroxybutan-2-yl)isolongifol-5-ene]	1.58
CCC(COC)C1=C2C(C)(C)[C@H]3CC[C@@]2(C3)C(C)(C)CC1 (some centres unmarked) [Compound 30, 5-(1-Methoxybutan-2-yl)isolongifol-5-ene]	2.51
CCC(COC)C1=CCC(C)(C)[C@@]23CC[C@@H](C2)C(C)(C)C13 (some centres unmarked) [Compound 31, 5-(1-methoxybutan-2-yl)isolongifol-4-ene]	3.98
CC1O[C@@]12CC[C@H]1C(C)(C)CCC[C@]1(C)[C@H]2C (some centres unmarked) [Compound 35, 3′,4,4,8,8a-Pentamethylspiro[2,3,4a,5,6,8-hexahydro-1H-naphthalene-7,2′-oxirane]]	31.6
CC1O[C@@]12CC[C@H]1C(C)(C)CCC[C@]1(C)C2 (some centres unmarked) [Compound 36, 3′,4,4,8a-Tetramethylspiro[2,3,4a,5,6,8-hexahydro-1H-naphthalene-7,2′-oxirane]]	20
CC(CO)C1CCC(C)(C)[C@@]23CC[C@@H](C2)C(C)(C)C13 (some centres unmarked) [Compound 39, 5-(1-Hydroxypropan-2-yl)isolongifolane]	1.58
CCOCOC1CCCCCCCCCCC1 [Compound 40, Boisambrene]	50.1
CC(=O)C1CC/C(C)=C\CC/C(C)=C\C/C=C\1C (centres unmarked) [Compound 42, Cyclisone/Trimofix]	20
CC1(C)C/C=C\CC/C=C\CCC2OC21C (centres unmarked) [Compound 43, Cedroxyde]	2
C/C1=C/CCC2(C)OC2CC/C(C)=C\CC1 (centres unmarked) [Compound 44, (E)-woody epoxide]	7.94
